Data on nine compounds can be found in patent US20260217672A1, “BENZAMIDE COMPOUNDS FOR TREATMENT OF BACTERIAL INFECTIONS” (Hoffmann-La Roche Inc., priority 2022, published 2026).

In brackets after ≈: the same amount, converted by molar mass. Where two headings read alike, the source gives them in different places.

Experiment [1] concerns Klebsiella pneumonia ATCC 43816. Description: Minimal Inhibitory Concentration (MIC) broth dilution assay. It is filed as cell-based. The following applies: Klebsiella pneumoniae, read-out: MIC Klebsiella pneumoniae ATCC43816. Put shortly: (§1)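 Broth dilution MIC in cation-adjusted Mueller Hinton broth, final inoculum 5×10^5 CFU/mL, serial 2-fold compound dilutions from DMSO stocks. Plates incubated 20 hours at 35° C. in ambient air; MIC read visually as lowest concentration inhibiting visible growth.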

For experiment [2], the system named is Escherichia coli ATCC 25922. The experiment is described as above. The class given is cell-based. The following applies: read-out: MIC Escherichia coli ATCC 25922. An outline of the steps: as §1

The MIC is the lowest concentration found to suppress growth. `O=C(Nc1ccc(S(=O)(=O)N2CCN(c3cc(C(F)(F)F)cc(Cl)n3)CC2)cc1)c1ccc(CCN2C3CNCC2C3)cc1` [Example 075, N-[4-[4-[6-chloro-4-(trifluoromethyl)-2-pyridyl]piperazin-1-yl]sulfonylphenyl]-4-[2-(3,6-diazabicyclo[3.1.1]heptan-6-yl)ethyl]benzamide]: the MIC worked out at 5.5 µg/mL (≈ 8.47 µM) in experiment [1] (ATCC43816, broth dilution in CAMHB, 5×10^5 CFU/mL, 20 hours at 35° C.) and 2.7 µg/mL (≈ 4.16 µM) in experiment [2] (ATCC25922, broth dilution in CAMHB, 5×10^5 CFU/mL, 20 hours at 35° C.).
Turning to `O=C(Nc1ccc(S(=O)(=O)N2CCN(c3cc(C(F)(F)F)cc(Cl)n3)CC2)cc1)c1cccc(CNCC2CCNCC2)c1` [Example 076, N-[4-[4-[6-chloro-4-(trifluoromethyl)-2-pyridyl]piperazin-1-yl]sulfonylphenyl]-3-[(4-piperidylmethylamino)methyl]benzamide], the MIC was determined as 2.7 µg/mL (≈ 4.15 µM) in experiment [1] (ATCC43816, 20 h) and 0.69 µg/mL (≈ 1.06 µM) in experiment [2] (ATCC25922, 20 h).
As to `NC1CC(CNCc2cccc(C(=O)Nc3ccc(S(=O)(=O)N4CCN(c5cc(C(F)(F)F)cc(Cl)n5)CC4)cc3)c2)C1` (stereo not drawn) [Example 077, 3-[[(3-Aminocyclobutyl)methylamino]methyl]-N-[4-[4-[6-chloro-4-(trifluoromethyl)-2-pyridyl]piperazin-1-yl]sulfonylphenyl]benzamide], the minimum inhibitory concentration (MIC) in experiment [1] (ATCC43816, 20 h) worked out at 2.7 µg/mL (≈ 4.24 µM); in experiment [2] (ATCC25922, 20 h), 0.68 µg/mL (≈ 1.07 µM).
In the same order, the values of `NC1(C2CCN(Cc3cccc(C(=O)Nc4ccc(S(=O)(=O)N5CCN(c6cc(C(F)(F)F)cc(Cl)n6)CC5)cc4)c3)C2)CC1` (stereo not drawn) [Example 079, 3-[[3-(1-Aminocyclopropyl)pyrrolidin-1-yl]methyl]-N-[4-[4-[6-chloro-4-(trifluoromethyl)-2-pyridyl]piperazin-1-yl]sulfonylphenyl]benzamide] are 2.2 µg/mL (≈ 3.32 µM) and 1.1 µg/mL (≈ 1.66 µM).
In the same order, the values of `O=C(Nc1ccc(S(=O)(=O)N2CCN(c3cc(C(F)(F)F)cc(Cl)n3)CC2)cc1)c1cccc(CNCCCN(CCO)CCO)c1` [Example 080, 3-[[3-[Bis(2-hydroxyethyl)amino]propylamino]methyl]-N-[4-[4-[6-chloro-4-(trifluoromethyl)-2-pyridyl]piperazin-1-yl]sulfonylphenyl]benzamide] are 2.9 µg/mL (≈ 4.15 µM) and 1.4 µg/mL (≈ 2 µM).
Take `COc1ccc(CNCCCC2CCNCC2)cc1C(=O)Nc1ccc(S(=O)(=O)N2CCN(c3cc(C(F)(F)F)cc(Cl)n3)CC2)cc1` [Example 081, N-[4-[4-[6-chloro-4-(trifluoromethyl)-2-pyridyl]piperazin-1-yl]sulfonylphenyl]-2-methoxy-5-[[3-(4-piperidyl)propylamino]methyl]benzamide]: the MIC in experiment [1] (ATCC43816, 20 h) turned out to be 2.9 µg/mL (≈ 4.09 µM); in experiment [2] (ATCC25922, 20 h) it was 1.5 µg/mL (≈ 2.11 µM).
In the same order, the values of `NCC12CC1CN(Cc1cccc(C(=O)Nc3ccc(S(=O)(=O)N4CCN(c5cc(C(F)(F)F)cc(Cl)n5)CC4)cc3)c1)C2` (stereo not drawn) [Example 082, 3-[[1-(Aminomethyl)-3-azabicyclo[3.1.0]hexan-3-yl]methyl]-N-[4-[4-[6-chloro-4-(trifluoromethyl)-2-pyridyl]piperazin-1-yl]sulfonylphenyl]benzamide] are 1.4 µg/mL (≈ 2.16 µM) and 0.69 µg/mL (≈ 1.06 µM).
In the case of `O=C1NC(CNCc2cccc(C(=O)Nc3ccc(S(=O)(=O)N4CCN(c5cc(C(F)(F)F)cc(Cl)n5)CC4)cc3)c2)CO1` (stereo not drawn) [Example 084, N-[4-[4-[6-chloro-4-(trifluoromethyl)-2-pyridyl]piperazin-1-yl]sulfonylphenyl]-3-[[(2-oxooxazolidin-4-yl)methylamino]methyl]benzamide], the MIC in experiment [1] (ATCC43816, 20 h) stood at 4.8 µg/mL (≈ 7.35 µM); in experiment [2] (ATCC25922, 20 h), 4.8 µg/mL (≈ 7.35 µM).
On to `COc1ccc(CN2CCC3CNCC32)cc1C(=O)Nc1ccc(S(=O)(=O)N2CCN(c3cc(C(F)(F)F)cc(Cl)n3)CC2)cc1` (stereo not drawn) [Example 087, 5-(3,3a,4,5,6,6a-Hexahydro-2H-pyrrolo[3,4-b]pyrrol-1-ylmethyl)-N-[4-[4-[6-chloro-4-(trifluoromethyl)-2-pyridyl]piperazin-1-yl]sulfonylphenyl]-2-methoxy-benzamide], for which the MIC in experiment [1] (ATCC43816, 20 h) was determined as 2.5 µg/mL (≈ 3.68 µM); in experiment [2] (ATCC25922, 20 h), 1.2 µg/mL (≈ 1.77 µM).
